Experiments:
TYK2 = molecular target: T1, TYK2 (Homo sapiens, UniProt P29597); assay: TYK2 Ki determination assay; type: biochemical; conditions: Lineweaver-Burk plot, polyGT substrate, varying ATP
T1 construct: catalytic domain (amino acids 871-1187; catalog number 08-147); GST; purchased Carna Biosciences 08-147
T1 sequence (P29597 871-1187): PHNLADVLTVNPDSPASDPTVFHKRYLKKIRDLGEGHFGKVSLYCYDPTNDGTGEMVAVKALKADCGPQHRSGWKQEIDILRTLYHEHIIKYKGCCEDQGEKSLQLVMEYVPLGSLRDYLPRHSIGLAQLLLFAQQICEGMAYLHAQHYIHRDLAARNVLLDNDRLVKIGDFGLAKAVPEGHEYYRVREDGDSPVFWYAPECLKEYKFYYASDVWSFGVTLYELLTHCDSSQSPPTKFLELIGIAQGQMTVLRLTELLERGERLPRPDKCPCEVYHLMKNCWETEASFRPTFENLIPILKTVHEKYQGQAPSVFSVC
Experimental: For the determination of Ki, different amounts of compound are mixed with the enzyme and the enzymatic reaction is followed as a function of ATP concentration. The Ki is determined by means of double reciprocal plotting of Km vs compound concentration (Lineweaver-Burk plot). TYK2 (Carna Biosciences, 08-147) was used at a final concentration of 160 ng/ml. The substrate was Poly(Glu,Tyr)sodium salt (4:1), MW 20 000-50 000 (Sigma, P0275) The reaction was performed in 25 mM Hepes pH 7.2, 50 mM NaCl, 0.5 mM EDTA, 1 mM DTT, 5 mM MnCl2, 10 mM MgCl2, 0.1% Brij-35 with varying concentrations of ATP and compound and stopped by addition of 150 mM phosphoric acid. Measurement of incorporated phosphate into the substrate polyGT was done by loading the samples on a filter plate (using a harvester, Perkin Elmer) and subsequent washing. Incorporated ^33P in polyGT is measured in a Topcount scintillation counter after addition of scintillation liquid to the filter plates (Perkin Elmer).

rat CIA model = assay: Rat collagen induced arthritis (CIA) model; type: in vivo; conditions: dose of 0.1 mg/kg
Experimental: Completed Freund's adjuvant (CFA) and incomplete Freund's adjuvant (IFA) were purchased from Difco. Bovine collagen type II (CII), lipopolysaccharide (LPS), and Enbrel was obtained from Chondrex (Isle d'Abeau, France); Sigma (P4252, L′Isle d'Abeau, France), Whyett (25 mg injectable syringe, France) Acros Organics (Palo Alto, Calif.), respectively. All other reagents used were of reagent grade and all solvents were of analytical grade.
Dark Agouti rats (male, 7-8 weeks old) were obtained from Harlan Laboratories (Maison-Alfort, France). Rats were kept on a 12 hr light/dark cycle (0700-1900). Temperature was maintained at 22° C., and food and water were provided ad libitum.
One day before the experiment, CII solution (2 mg/mL) is prepared with 0.05 M acetic acid and stored at 4° C. Just before the immunization, equal volumes of adjuvant (IFA) and CII are mixed by a homogenizer in a pre-cooled glass bottle in an ice water bath. […]
Arthritis is scored according to the method of Khachigian 2006, Lin et al 2007 and Nishida et al. 2004). […]
The area under the curve (AUC) from day 1 to day 14 is calculated for each individual rat. The AUC of each animal is divided by the average AUC obtained for the vehicle in the study from which the data on that animal is obtained and multiplied by 100 (i.e. the AUC was expressed as a percentage of the average vehicle AUC per study). […]

Ki (TYK2): 135 nM
Compound: CC(=O)Nc1cc2c(-c3ccc(CN4CCN(S(C)(=O)=O)CC4)c(F)c3)cccn2n1 [Compound 21]
normalized clinical score values (calculated as AUC or as the difference from day 1 to day 14) (rat CIA model): statistically significant improvements

— patent publication US8975406B2, “Compound useful for the treatment of degenerative and inflammatory diseases” (Galapagos N.V., priority 2011, dated 2015)
